By EC50 is commonly meant the midpoint of the concentration-response curve.

Data on ten compounds can be found in publication PMC6001824, “Expressional and functional interactions of two Apis cerana cerana olfactory receptors” (PeerJ, 2018).

The structures appear in SMILES notation. Like-named read-outs stand apart in the source and are kept apart here.

For experiment [1], the target named is T1, AcerOr2 (Apis cerana cerana, UniProt G9J1I3). It counts as cell-based. Conditions: for EC50: Sf9 cells expressing AcerOr2, Ca2+ imaging. The protocol: (§1) Spodoptera frugiperda Sf9 cells were purchased from the Chinese Academy of Sciences Cell Bank (Beyotime, Shanghai, China) were maintained as an adherent culture in Sf-900 III serum-free medium (SFM; Gibco, Invitrogen, Carlsbad, CA, USA) supplemented with 10% fetal bovine serum (Sijiqing, Hangzhou, China) and 100 μg mL^−1 penicillin-streptomycin at a constant temperature of 28 °C in a humidified incubator (Thermo Scientific, Cornelius, OR, USA) in the absence of CO2 in T-25 tissue culture flasks (Corning Inc., Corning, NY, USA). Sf9 cells were grown to approximately 80–90% confluence as observed under a light microscope. Cells were dislodged from the flask by washing with the media contained in the flask. In total, 1 × 10^6 Sf9 cells were suspended in 2 mL of Sf-900 III SFM in each well of a Nunclone six-well tissue culture plate (Corning Inc., Corning, NY, USA). Confluent cells (80–90%) were transiently transfected with 2.0 μg pIB-AcerOr1/pIB-AcerOr2 using 8 μL of Cellfectin II reagent (Invitrogen, Carlsbad, CA, USA) in six-well plates according to the manufacturer’s instructions. The medium containing plasmid DNA and Cellfectin II was removed after incubation of the cells with a DNA/Cellfectin II mix for 3–5 h. The cells were washed twice with fresh Sf-900 III SFM and overlaid with 2 mL of fresh SFM. […] After incubation for 48 h, assays were performed.
T1 sequence (G9J1I3 entry or part of it): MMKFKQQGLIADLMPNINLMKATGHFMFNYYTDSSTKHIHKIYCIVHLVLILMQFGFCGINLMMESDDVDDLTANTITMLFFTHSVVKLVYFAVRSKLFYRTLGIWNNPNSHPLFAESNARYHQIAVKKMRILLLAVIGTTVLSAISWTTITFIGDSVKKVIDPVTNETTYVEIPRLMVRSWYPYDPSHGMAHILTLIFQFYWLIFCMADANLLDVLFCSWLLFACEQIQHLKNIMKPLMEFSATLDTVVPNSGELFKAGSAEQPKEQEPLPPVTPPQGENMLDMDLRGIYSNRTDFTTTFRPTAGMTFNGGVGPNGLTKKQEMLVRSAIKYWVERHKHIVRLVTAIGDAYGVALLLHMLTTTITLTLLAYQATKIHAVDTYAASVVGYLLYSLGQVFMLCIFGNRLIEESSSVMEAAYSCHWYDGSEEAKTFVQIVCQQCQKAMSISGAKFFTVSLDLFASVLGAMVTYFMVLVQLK
(§2) To identify candidate ligands for selected ORs, we tested 32 compounds (most of which were volatile compounds from host plants, including aldehydes, alcohols, monoterpenes, benzoates, and sesquiterpenes) at a final concentration of 10^−6 M by Ca^2+ imaging in an in vitro cell expression system. […] After the cells were transfected for 48 h, the medium was removed and the cells were washed three times with Hank’s balanced salt solution (without Ca^2+). The cells were subsequently cultured at 37 °C in the dark for 30 min in the presence of 2 μmol L^−1 Fluo-4-AM (Beyotime, Shanghai, China) and were stimulated by the chemical odorants. Each test chemical ligand was applied to Fluo-4-loaded Sf9 cells expressing AcerOr1 at a final concentration of 10^−6 M, and the increase in fluorescence caused by the substrate was measured and expressed as a fraction of the fluorescence elicited by the calcium ionophore ionomycin. The Ca^2+-free solution used was Dulbecco’s phosphate buffered saline supplemented with 0.4 mM ethylene glycol tetra-acetic acid (EGTA).
(§3) EC50 values were determined using GraphPad Prism 6.0 (GraphPad; San Diego, CA, USA). The formula used for calculating the concentration-response using a 4-parameter logistic model was as follows: Y=Bottom+(Top−Bottom)/1+10^(LogEC50−X)^*HillSlope where Y and X are the response showing a sigmoid shape and the logarithm of the concentration.

Another experiment deals with AcerOr1 (Apis cerana cerana, UniProt G8HAQ8). It counts as cell-based. Conditions: for HillSlope: Sf9 cells expressing AcerOr1, 4-parameter logistic fit; for EC50: Sf9 cells expressing AcerOr1, Ca2+ imaging; for Emax: Sf9 cells expressing AcerOr1, concentration-response, 4-parameter logistic fit; for response of AcerOr1-expressing cells (increase in intracellular Ca2+): odorant at 10^−6 M. The protocol:
as §1, §2, §3

Experiment [2] deals with antennae of Apis cerana cerana. The experiment in a line: Electroantennography (EAG) of isolated antennae. Conditions: 500 μg μL^−1 of compound in liquid paraffin, relative to blank. Here is the method:
The level of OR expression in antenna olfactory neurons can be indirectly measured by recording the EAG responses of the isolated antennae to the corresponding odorant ligand. We compared data previously obtained by Ca^2+ imaging in vitro to determine whether these odorants can cause electrophysiological responses in the antennae with physiological activity. […] The compounds were dissolved and diluted in liquid paraffin to final concentrations of 0.1, 1, 10, 100, and 500 μg μL^−1. Pure liquid paraffin wax was used as a blank, and results were calculated relative to the blank. The antennae were carefully cut at the base and placed into EAG electrode probes (Syntech, Hilversum, The Netherlands) with a drop of Spectra 360 electrode gel (Parker Lab, Inc., Fairfield, NJ, USA). Filter paper strips (5 × 50 mm) were loaded with 20 μL of the different test solutions and inserted into glass Pasteur pipettes and served as sources of stimuli. Humidified airflow was delivered at a constant rate of 700 mL min^−1 by an air stimulus controller CS-55 (Syntech, Kirchzarten, Germany). Odor stimuli were administered three times at 2 mL s^−1 for 0.5 s at 30 s intervals. EAG recordings of antennal responses to each stimulus were documented as voltage waveforms using an IDAC-4 computer-operated amplifier controller (Syntech, Kirchzarten, Germany), and the data were analyzed with the EAGPro software (Syntech, Kirchzarten,Germany). A newly prepared antenna was used for each recording. A dose-response curve was plotted using the EAG recordings (in mV) for each concentration.

Experiment [3] has as its target T1, AcerOr2. It is filed as cell-based. Conditions: odorant at 10^−6 M.
Experiment [4] deals with endogenous Orco in Sf9 cells. The experiment in a line: Ca2+ imaging of control Sf9 cells transfected with pIB/V5 empty vector. It counts as cell-based, Spodoptera frugiperda. Particulars: odorant at 10^−6 M.

AcerOr1, sequence (G8HAQ8 entry or part of it): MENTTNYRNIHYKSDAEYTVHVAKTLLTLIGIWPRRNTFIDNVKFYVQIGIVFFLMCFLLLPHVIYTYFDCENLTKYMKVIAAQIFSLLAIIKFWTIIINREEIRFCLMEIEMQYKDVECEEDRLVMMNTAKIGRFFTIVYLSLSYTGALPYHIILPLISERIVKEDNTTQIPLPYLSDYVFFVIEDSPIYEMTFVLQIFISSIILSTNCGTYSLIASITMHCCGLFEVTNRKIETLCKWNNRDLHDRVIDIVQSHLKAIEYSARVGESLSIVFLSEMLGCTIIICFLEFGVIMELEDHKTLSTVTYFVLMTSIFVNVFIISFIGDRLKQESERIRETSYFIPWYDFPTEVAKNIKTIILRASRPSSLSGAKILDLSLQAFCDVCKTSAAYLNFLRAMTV

Turning to `CCCCCCCCCO` [1-Nonanol], the EC50 at AcerOr2 [1] (read-out: EC50) is over 10 µM. Moreover, on AcerOr1, the HillSlope is listed as 0.80 ± 0.06, the EC50 is recorded as 10^−7 to 10^−8 M, the Emax was 69.86 ± 0.44 and the “response of AcerOr1-expressing cells (increase in intracellular Ca2+)” value is “elicited responses”.

Consider `CCCCCCCCO` [1-Octyl alcohol], for which the half-maximal effective concentration (EC50) at AcerOr2 [1] (read-out: EC50) was over 10 µM. Besides, at AcerOr1, the HillSlope stood at 0.63 ± 0.04, the EC50 is reported as 10^−7 to 10^−8 M, the Emax is listed as 106.77 ± 2.01 and the “response of AcerOr1-expressing cells (increase in intracellular Ca2+)” value is given as “elicited responses”.

`C=CCc1ccc(O)c(OC)c1` [Eugenol]: the EAG response in experiment [2] came to 9.92 ± 0.58 mV. The same compound returned an EC50 at AcerOr2 [1] of over 10 µM. Also, on AcerOr1, the HillSlope amounted to 0.74 ± 0.06, the EC50 is on record as 10^−7 to 10^−8 M, the Emax was found to be 88.53 ± 0.52 and the “response of AcerOr1-expressing cells (increase in intracellular Ca2+)” value is “elicited responses”.

Take `CCCCCCOC(C)=O` [Hexyl acetate]: the EC50 at AcerOr2 [1] (read-out: EC50) was over 10 µM. Moreover, on AcerOr1, the HillSlope is recorded as 0.73 ± 0.05, the 50% effective concentration (EC50) is reported as 10^−7 to 10^−8 M, the Emax turned out to be 115.94 ± 1.5 and the “response of AcerOr1-expressing cells (increase in intracellular Ca2+)” value is given as “elicited responses”.

For `CCCCCCCCCCCC(=O)O` [Lauric acid], the EC50 at AcerOr2 [1] (read-out: EC50) is over 10 µM. Moreover, at AcerOr1, the HillSlope was found to be 0.49 ± 0.06, the 50% effective concentration (EC50) is given as 10^−7 to 10^−8 M, the Emax was 138.79 ± 0.5 and the “response of AcerOr1-expressing cells (increase in intracellular Ca2+)” value is listed as “elicited responses”. Further, the EC50 at AcerOr1 (read-out: EC50) turned out to be 0.0481 µM.

In the case of `CC/C=C\C/C=C\C/C=C\CCCCCCCC(=O)O` [Linolenic acid], the EAG response in experiment [2] stood at 10 ± 0.54 mV. At AcerOr2 [1], this compound gave a half-maximal effective concentration (EC50) of over 10 µM. In addition, at AcerOr1, the HillSlope is on record as 0.87 ± 0.03, the EC50 is 10^−7 to 10^−8 M, the Emax is listed as 85.74 ± 0.83 and the “response of AcerOr1-expressing cells (increase in intracellular Ca2+)” value is given as “elicited responses”.

Regarding `CC(C)=CCC/C(C)=C\CO` [Nerol], at AcerOr2 [1], the EC50 was over 10 µM. Besides, at AcerOr1, the HillSlope is given as 0.52 ± 0.06, the concentration giving a half-maximal response (EC50) is given as 10^−7 to 10^−8 M, the Emax is 184.92 ± 0.55 and the “response of AcerOr1-expressing cells (increase in intracellular Ca2+)” value is given as “elicited responses”.

Regarding `C=CC(C)=CCC=C(C)C` [Ocimene], the EC50 on AcerOr2 [1] (read-out: EC50) is over 10 µM. At AcerOr1, the HillSlope is on record as 0.50 ± 0.09, the EC50 is reported as 10^−7 to 10^−8 M, the Emax turned out to be 144.27 ± 0.59 and the “response of AcerOr1-expressing cells (increase in intracellular Ca2+)” value was “elicited responses”. Also, the EC50 at AcerOr1 (read-out: EC50) was determined as 0.0532 µM.

With `CCCCCCCCCCC(=O)O` [Undecanoic acid], the EC50 at AcerOr2 [1] (read-out: EC50) is over 10 µM. Besides, at AcerOr1, the HillSlope is 0.73 ± 0.05, the EC50 is given as 10^−7 to 10^−8 M, the Emax was determined as 116.69 ± 1.15 and the “response of AcerOr1-expressing cells (increase in intracellular Ca2+)” value is “elicited responses”.

Take `CCc1ccc(NC(=O)CSc2nnc(-c3cccnc3)n2CC)cc1` [VUAA1, N-(4-ethylphenyl)-2-((4-ethyl-5-(3-pyridinyl)-4H-1,2,4-triazol-3-yl)thio) acetamide]: the EAG response in experiment [2] stood at 18.71 ± 1.45 mV. The same compound gave a HillSlope at AcerOr2 [1] (Sf9 cells expressing AcerOr2, 4-parameter logistic fit) of 0.56 ± 0.08. The EC50 at AcerOr2 [1] (read-out: EC50) came out at 0.0662 µM. At AcerOr2 [1] (Sf9 cells expressing AcerOr2, concentration-response, 4-parameter logistic fit), the Emax was 241.67 ± 0.74. Moreover, on AcerOr1, the HillSlope is recorded as 1.72 ± 1.48, the Emax came out at 4.64 ± 0.10 and the “response of AcerOr1-expressing cells (increase in intracellular Ca2+)” value was “sensitive”. The “response of cells expressing AcerOr2 alone (increase in intracellular Ca2+)” value on AcerOr2 [3] is recorded as “greatest increase in intracellular Ca^2+”. Further, in experiment [4], the “response of control cells (pIB/V5 empty vector, endogenous Orco only)” value was “unable to respond”.
